{"source": "paper PMC10086023", "about": "“The effect of barium and strontium on activity of glucoamylase QsGH97a from Qipengyuania seohaensis SW-135” (Scientific Reports, 2023)", "system": "T1, QsGH97a", "T1 construct": "pSMT3 His-SUMO fusion in E. coli BL21(DE3), tag cut by Ulp1; probable dimer; forward primer encodes MIRHIALFI; catalytic Glu378, Glu459, Glu483", "test": "p-nitrophenol release at […] nm, Michaelis-Menten fit", "format": "biochemical, Qipengyuania seohaensis", "conditions": "20 mM Tris-HCl pH 8.0, 50 °C, no added metal ion", "data": [{"smiles": "O=[N+]([O-])c1ccc(O[C@H]2O[C@H](CO)[C@@H](O)[C@H](O)[C@H]2O)cc1", "note": "[pNPαGlu, p-Nitrophenyl-α-D-glucopyranoside]", "values": [{"measurement": "Km", "result": "200 ± 20", "unit": "µM"}]}]}
